Test results: the supplement of paper PMC10307832

Assays:
Test in all cases: relative viability (nuclei count vs DMSO), 5 days (fraction); higher = more cells survive
[1] = test system: UMC-11
Summary of the method: (§1)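 Five library-drug doses in √10 steps were combined with a fixed anchor-drug dose, or a single drug was given alone, by pin tool to lung cancer cell lines in 1536-well plates the day after seeding. Nuclei were stained and counted after 5 days. Relative viability is the nuclei count in treated wells over that in vehicle wells, taken as the median of duplicate plates.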

[2] = test system: NCI-H2009
Summary of the method: as §1

[3] = test system: NCI-H1650
Summary of the method: as §1

[4] = test system: A-427
Summary of the method: as §1

[5] = test system: NCI-H1734
Summary of the method: as §1

[6] = test system: LK-2
Summary of the method: as §1

[7] = test system: CAL-12T
Summary of the method: as §1

[8] = test system: NCI-H1648
Summary of the method: as §1

COc1cc2nccc(Oc3ccc(NC(=O)Nc4cc(C)on4)c(Cl)c3)c2cc1OC [Tivozanib] + CC(=O)Nc1cccc(-n2c(=O)n(C3CC3)c(=O)c3c(Nc4ccc(I)cc4F)n(C)c(=O)c(C)c32)c1 [Trametinib] (partner 0.02 µM) showed a relative viability ([1]; first compound 0.005 µM) of 0.66, a relative viability ([1]; first compound 0.01581 µM) of 0.67 and a relative viability ([1]; first compound 0.05 µM) of 0.754. The relative viability ([1]; first compound 0.1581 µM) was 0.533, the relative viability ([1]; first compound 0.5 µM) was 0.529 and the relative viability ([2]; first compound 0.005 µM) was 0.269. It also gave a relative viability ([2]; first compound 0.01581 µM) of 0.323, a relative viability ([2]; first compound 0.05 µM) of 0.295 and a relative viability ([2]; first compound 0.1581 µM) of 0.204. It also gave a relative viability ([2]; first compound 0.5 µM) of 0.339, a relative viability ([3]; first compound 0.005 µM) of 0.592 and a relative viability ([3]; first compound 0.01581 µM) of 0.582. The relative viability ([3]; first compound 0.05 µM) was 0.584, the relative viability ([3]; first compound 0.1581 µM) was 0.545 and the relative viability ([3]; first compound 0.5 µM) was 0.547. It also gave a relative viability ([4]; first compound 0.005 µM) of 0.696, a relative viability ([4]; first compound 0.01581 µM) of 0.718 and a relative viability ([4]; first compound 0.05 µM) of 0.758. The relative viability ([4]; first compound 0.1581 µM) was 0.67, the relative viability ([4]; first compound 0.5 µM) was 0.686 and the relative viability ([5]; first compound 0.005 µM) was 0.645. The relative viability ([5]; first compound 0.01581 µM) was 0.642, the relative viability ([5]; first compound 0.05 µM) was 0.666 and the relative viability ([5]; first compound 0.1581 µM) was 0.479. For the same molecule, the relative viability ([5]; first compound 0.5 µM) was 0.638, the relative viability ([6]; first compound 0.005 µM) was 0.933 and the relative viability ([6]; first compound 0.01581 µM) was 0.534. It also gave a relative viability ([6]; first compound 0.05 µM) of 0.622, a relative viability ([6]; first compound 0.1581 µM) of 0.85 and a relative viability ([6]; first compound 0.5 µM) of 0.773. For the same molecule, the relative viability ([7]; first compound 0.005 µM) was 0.297, the relative viability ([7]; first compound 0.01581 µM) was 0.356 and the relative viability ([7]; first compound 0.05 µM) was 0.414. It also gave a relative viability ([7]; first compound 0.1581 µM) of 0.235, a relative viability ([7]; first compound 0.5 µM) of 0.408 and a relative viability ([8]; first compound 0.005 µM) of 0.478. For the same molecule, the relative viability ([8]; first compound 0.01581 µM) was 0.604, the relative viability ([8]; first compound 0.05 µM) was 0.473 and the relative viability ([8]; first compound 0.1581 µM) was 0.442. The relative viability ([8]; first compound 0.5 µM) was 0.429.
Cc1sc2c(c1C)C(c1ccc(Cl)cc1)=N[C@@H](CC(=O)OC(C)(C)C)c1nnc(C)n1-2 [JQ1] + Nc1nc2[nH]cc(CCc3ccc(C(=O)N[C@@H](CCC(=O)O)C(=O)O)cc3)c2c(=O)[nH]1 [Pemetrexed] (partner 0.2 µM) was tested, and the relative viability ([1]; first compound 0.04 µM) was 0.73, the relative viability ([1]; first compound 0.1265 µM) was 0.584 and the relative viability ([1]; first compound 0.4 µM) was 0.352. The relative viability ([1]; first compound 1.265 µM) was 0.254, the relative viability ([1]; first compound 4 µM) was 0.193 and the relative viability ([2]; first compound 0.04 µM) was 0.958. For the same molecule, the relative viability ([2]; first compound 0.1265 µM) was 0.795, the relative viability ([2]; first compound 0.4 µM) was 0.954 and the relative viability ([2]; first compound 1.265 µM) was 0.459. The relative viability ([2]; first compound 4 µM) was 0.234, the relative viability ([3]; first compound 0.04 µM) was 0.365 and the relative viability ([3]; first compound 0.1265 µM) was 0.293. The relative viability ([3]; first compound 0.4 µM) was 0.335, the relative viability ([3]; first compound 1.265 µM) was 0.202 and the relative viability ([3]; first compound 4 µM) was 0.183. The relative viability ([4]; first compound 0.04 µM) was 0.988, the relative viability ([4]; first compound 0.1265 µM) was 0.794 and the relative viability ([4]; first compound 0.4 µM) was 0.994. It also gave a relative viability ([4]; first compound 1.265 µM) of 0.914, a relative viability ([4]; first compound 4 µM) of 0.639 and a relative viability ([5]; first compound 0.04 µM) of 0.358. It also gave a relative viability ([5]; first compound 0.1265 µM) of 0.347, a relative viability ([5]; first compound 0.4 µM) of 0.327 and a relative viability ([5]; first compound 1.265 µM) of 0.342. For the same molecule, the relative viability ([5]; first compound 4 µM) was 0.283, the relative viability ([6]; first compound 0.04 µM) was 0.282 and the relative viability ([6]; first compound 0.1265 µM) was 0.29. The relative viability ([6]; first compound 0.4 µM) was 0.234, the relative viability ([6]; first compound 1.265 µM) was 0.16 and the relative viability ([6]; first compound 4 µM) was 0.158. The relative viability ([7]; first compound 0.04 µM) was 1.22, the relative viability ([7]; first compound 0.1265 µM) was 1.18 and the relative viability ([7]; first compound 0.4 µM) was 1.08. It also gave a relative viability ([7]; first compound 1.265 µM) of 0.465, a relative viability ([7]; first compound 4 µM) of 0.249 and a relative viability ([8]; first compound 0.04 µM) of 0.726. The relative viability ([8]; first compound 0.1265 µM) was 0.817, the relative viability ([8]; first compound 0.4 µM) was 0.683 and the relative viability ([8]; first compound 1.265 µM) was 0.54. It also gave a relative viability ([8]; first compound 4 µM) of 0.258.
